Laboratory results from patent publication US20260102359A1, “COMBINATION TREATMENT OF DERMAL AND TRANSDERMAL FIBROTIC DISEASES, DISORDERS AND ASSOCIATED PAIN AND INFLAMMATION” (ERESINA, LLC, priority 2022, published 2026).
Structures can show the parent of a compound that is named as a salt.

The compounds below were run on hDMFa myofibroblast cells.

| Structure (SMILES) | Compound Myofibroblast Cytotoxicity Activity |
| --- | --- |
| Br.NCCc1cc(O)c(O)cc1O [Cmpd 72] | ++++ |
| Oc1ccc(O)cc1 [Cmpd 509, Hydroquinone] | ++ |
| Cc1nc(Nc2ncc(C(=O)Nc3c(C)cccc3Cl)s2)cc(N2CCN(CCO)CC2)n1 [Cmpd 326, Dasatinib (BMS-354825)] | +++ |
| CC(C)N(CCC(C(N)=O)(c1ccccc1)c1ccccn1)C(C)C (centres unmarked) [Cmpd 366, Disopyramide] | ++ |
| CSCCC(N)C(=O)O (racemic) [Cmpd 369, DL-Methionine] | ++ |
| CC1(COc2ccc3c(c2)ncn3-c2ccc3cccc(N4CCC(N)CC4)c3n2)COC1 [Cmpd 296, Crenolanib (CP-868596)] | +++++ |
| CC(C)(O)c1ccccc1CC[C@@H](SCC1(CC(=O)O)CC1)c1cccc(/C=C/c2ccc3ccc(Cl)cc3n2)c1 [Cmpd 689, Montelukast Sodium] | +++++ |
| Nc1ncnc2c1ncn2[C@@H]1O[C@H](COP(=O)(O)OP(=O)(O)OP(=O)(O)O)[C@@H](O)[C@H]1O [Cmpd 91, Adenosine 5-triphosphate] | +++ |
| CC(C)c1nc(N(C)S(C)(=O)=O)nc(-c2ccc(F)cc2)c1/C=C/[C@@H](O)C[C@@H](O)CC(=O)[O-].CC(C)c1nc(N(C)S(C)(=O)=O)nc(-c2ccc(F)cc2)c1/C=C/[C@@H](O)C[C@@H](O)CC(=O)[O-].[Ca+2] [Cmpd 842, Rosuvastatin Calcium] | +++ |
| CCCCCCCCCCCCCCCC(=O)OC(CC(=O)O)C[N+](C)(C)C.[Cl-] (racemic) [Cmpd 17, (±)-Palmitoylcarnitine chloride] | ++ |
| CCOC(=O)C1=C(C)NC(C)=C(C(=O)OC)C1c1cccc(Cl)c1Cl (centres unmarked) [Cmpd 449, Felodipine] | +++ |
| Cc1nnc(SCC2=C(C(=O)O)N3C(=O)[C@@H](NC(=O)Cn4cnnn4)[C@H]3SC2)s1 [Cmpd 228, Cefazolin (sodium salt)] | +++ |
| CCOc1ccc(Cc2cc([C@@H]3O[C@H](CO)[C@@H](O)[C@H](O)[C@H]3O)ccc2Cl)cc1.C[C@H](O)CO.O [Cmpd 321, Dapagliflozin ((2S)-1,2-propanediol,hydrate)] | ++ |
| CCCCCCCCCCCCCCCCOP(=O)([O-])OCC[N+](C)(C)C [Cmpd 677, Miltefosine] | +++++ |
| Cc1nc(Nc2ncc(C(=O)Nc3c(C)cccc3Cl)s2)cc(N2CCN(CCO)CC2)n1 [Cmpd 327, Dasatinib hydrochloride] | +++ |
| OC1(c2ccc(Cl)c(C(F)(F)F)c2)CCN(CCCC(c2ccc(F)cc2)c2ccc(F)cc2)CC1 [Cmpd 765, Penfluridol] | +++ |
| N[C@@H](Cc1c[nH]c2ccccc12)C(=O)O [Cmpd 615, L-Tryptophan] | ++ |
| O=C(O)C=Cc1ccccc1 [Cmpd 266, Cinnamic acid] | ++ |
| N#CC(c1ccc(Cl)cc1)c1c(Cl)cc(-n2ncc(=O)[nH]c2=O)cc1Cl (centres unmarked) [Cmpd 354, Diclazuril] | +++ |
| O=C(O)Cc1ccccc1Nc1c(Cl)cccc1Cl [Cmpd 355, Diclofenac] | ++ |
| O=c1[nH]c(=O)n([C@H]2C[C@H](O)[C@@H](CO)O2)cc1F [Cmpd 459, Floxuridine] | +++ |

| Structure (SMILES) | Compound Myofibroblast Cytotoxicity Activity |
| --- | --- |
| CN(C)[C@@H]1C(O)=C(C(N)=O)C(=O)[C@@]2(O)C(O)=C3C(=O)c4c(O)ccc(Cl)c4[C@@](C)(O)[C@H]3C[C@@H]12 [Cmpd 256, Chlortetracycline HCl] | ++ |
| CN(C(=O)CN(CCO)CC(=O)N(C)C(C)(C)Cc1ccccc1)C(C)(C)Cc1ccccc1 [Cmpd 745, Oxethazaine] | +++++ |
| Clc1ccccc1C(c1ccccc1)(c1ccccc1)n1ccnc1 [Cmpd 289, Clotrimazole] | +++ |
| C#CCN[C@@H]1CCc2ccccc21 [Cmpd 821, Rasagiline] | ++ |
| CN1CCN2c3ncccc3Cc3ccccc3C2C1 (centres unmarked) [Cmpd 679, Mirtazapine] | ++++ |
| O=C1O[C@H]([C@@H](O)CO)C(O)=C1O [Cmpd 562, L-Ascorbic Acid (Vitamin C)] | + |
| O=C1NC(=O)C(c2ccccc2)(c2ccccc2)N1 [Cmpd 778, Phenytoin sodium] | ++ |
| CC(C(=O)O)c1ccc(CC2CCCC2=O)cc1 (centres unmarked) [Cmpd 611, Loxoprofen Sodium] | ++ |
| CS(=O)(=O)CCNCc1ccc(-c2ccc3ncnc(Nc4ccc(OCc5cccc(F)c5)c(Cl)c4)c3c2)o1 [Cmpd 558, Lapatinib Ditosylate] | +++ |
| Cn1cc(C2=C(c3cn(C4CCN(Cc5ccccn5)CC4)c4ccccc34)C(=O)NC2=O)c2ccccc21 [Cmpd 420, Enzastaurin (LY317615)] | ++++ |
| Cl.Cl.OCCN1CCN(CCCN2c3ccccc3Sc3ccc(C(F)(F)F)cc32)CC1 [Cmpd 465, Fluphenazine dihydrochloride] | +++++ |
| Cc1nnc(NS(=O)(=O)c2ccc(N)cc2)s1 [Cmpd 896, Sulfamethizole] | ++++ |
| CO[C@H]1/C=C/O[C@@]2(C)Oc3c(C)c(O)c4c(O)c(cc(O)c4c3C2=O)NC(=O)/C(C)=C\C=C\[C@H](C)[C@H](O)[C@@H](C)[C@@H](O)[C@@H](C)[C@H](OC(C)=O)[C@@H]1C [Cmpd 833, Rifamycin sodium salt] | ++ |
| CC(C)[C@H](N)C(=O)O [Cmpd 618, L-Valine] | ++ |
| C[C@]1(OC(=O)/C=C/c2ccccc2)C[C@@H](O)[C@]2(O)C=CO[C@@H](O[C@@H]3O[C@H](CO)[C@@H](O)[C@H](O)[C@H]3O)[C@@H]21 [Cmpd 499, Harpagoside] | ++ |
| CC=CC(=O)N(CC)c1ccccc1C [Cmpd 298, Crotamiton] | ++ |
| Cc1ncc(C[n+]2csc(CCO)c2C)c(N)n1.Cl.[Cl-] [Cmpd 939, Thiamine HCl (Vitamin B1)] | ++ |
| CO/N=C(\C(=O)N[C@@H]1C(=O)N2C(C(=O)OC(C)OC(C)=O)=C(COC(N)=O)CS[C@H]12)c1ccco1 (some centres unmarked) [Cmpd 238, Cefuroxime axetil] | ++ |
| C=C1[C@H](CO)[C@@H](O)C[C@@H]1n1cnc2c(=O)[nH]c(N)nc21 [Cmpd 418, Entecavir Hydrate] | +++ |
| CC(C)(C)c1ccc(S(=O)(=O)/C=C/C#N)cc1 [Cmpd 157, Bay 11-7085] | +++++ |
